{
  "source": "paper PMC8206283",
  "about": "“Three New Quinazoline-Containing Indole Alkaloids From the Marine-Derived Fungus Aspergillus sp. HNMF114” (Frontiers in Microbiology, 2021)",
  "target": "T1, ryanodine receptor from Spodoptera frugiperda (sfRyR) (Spodoptera frugiperda, UniProt A0A4P8L6R5)",
  "T1 construct": "gene RyR",
  "T1 sequence (A0A4P8L6R5 entry or part of it)": "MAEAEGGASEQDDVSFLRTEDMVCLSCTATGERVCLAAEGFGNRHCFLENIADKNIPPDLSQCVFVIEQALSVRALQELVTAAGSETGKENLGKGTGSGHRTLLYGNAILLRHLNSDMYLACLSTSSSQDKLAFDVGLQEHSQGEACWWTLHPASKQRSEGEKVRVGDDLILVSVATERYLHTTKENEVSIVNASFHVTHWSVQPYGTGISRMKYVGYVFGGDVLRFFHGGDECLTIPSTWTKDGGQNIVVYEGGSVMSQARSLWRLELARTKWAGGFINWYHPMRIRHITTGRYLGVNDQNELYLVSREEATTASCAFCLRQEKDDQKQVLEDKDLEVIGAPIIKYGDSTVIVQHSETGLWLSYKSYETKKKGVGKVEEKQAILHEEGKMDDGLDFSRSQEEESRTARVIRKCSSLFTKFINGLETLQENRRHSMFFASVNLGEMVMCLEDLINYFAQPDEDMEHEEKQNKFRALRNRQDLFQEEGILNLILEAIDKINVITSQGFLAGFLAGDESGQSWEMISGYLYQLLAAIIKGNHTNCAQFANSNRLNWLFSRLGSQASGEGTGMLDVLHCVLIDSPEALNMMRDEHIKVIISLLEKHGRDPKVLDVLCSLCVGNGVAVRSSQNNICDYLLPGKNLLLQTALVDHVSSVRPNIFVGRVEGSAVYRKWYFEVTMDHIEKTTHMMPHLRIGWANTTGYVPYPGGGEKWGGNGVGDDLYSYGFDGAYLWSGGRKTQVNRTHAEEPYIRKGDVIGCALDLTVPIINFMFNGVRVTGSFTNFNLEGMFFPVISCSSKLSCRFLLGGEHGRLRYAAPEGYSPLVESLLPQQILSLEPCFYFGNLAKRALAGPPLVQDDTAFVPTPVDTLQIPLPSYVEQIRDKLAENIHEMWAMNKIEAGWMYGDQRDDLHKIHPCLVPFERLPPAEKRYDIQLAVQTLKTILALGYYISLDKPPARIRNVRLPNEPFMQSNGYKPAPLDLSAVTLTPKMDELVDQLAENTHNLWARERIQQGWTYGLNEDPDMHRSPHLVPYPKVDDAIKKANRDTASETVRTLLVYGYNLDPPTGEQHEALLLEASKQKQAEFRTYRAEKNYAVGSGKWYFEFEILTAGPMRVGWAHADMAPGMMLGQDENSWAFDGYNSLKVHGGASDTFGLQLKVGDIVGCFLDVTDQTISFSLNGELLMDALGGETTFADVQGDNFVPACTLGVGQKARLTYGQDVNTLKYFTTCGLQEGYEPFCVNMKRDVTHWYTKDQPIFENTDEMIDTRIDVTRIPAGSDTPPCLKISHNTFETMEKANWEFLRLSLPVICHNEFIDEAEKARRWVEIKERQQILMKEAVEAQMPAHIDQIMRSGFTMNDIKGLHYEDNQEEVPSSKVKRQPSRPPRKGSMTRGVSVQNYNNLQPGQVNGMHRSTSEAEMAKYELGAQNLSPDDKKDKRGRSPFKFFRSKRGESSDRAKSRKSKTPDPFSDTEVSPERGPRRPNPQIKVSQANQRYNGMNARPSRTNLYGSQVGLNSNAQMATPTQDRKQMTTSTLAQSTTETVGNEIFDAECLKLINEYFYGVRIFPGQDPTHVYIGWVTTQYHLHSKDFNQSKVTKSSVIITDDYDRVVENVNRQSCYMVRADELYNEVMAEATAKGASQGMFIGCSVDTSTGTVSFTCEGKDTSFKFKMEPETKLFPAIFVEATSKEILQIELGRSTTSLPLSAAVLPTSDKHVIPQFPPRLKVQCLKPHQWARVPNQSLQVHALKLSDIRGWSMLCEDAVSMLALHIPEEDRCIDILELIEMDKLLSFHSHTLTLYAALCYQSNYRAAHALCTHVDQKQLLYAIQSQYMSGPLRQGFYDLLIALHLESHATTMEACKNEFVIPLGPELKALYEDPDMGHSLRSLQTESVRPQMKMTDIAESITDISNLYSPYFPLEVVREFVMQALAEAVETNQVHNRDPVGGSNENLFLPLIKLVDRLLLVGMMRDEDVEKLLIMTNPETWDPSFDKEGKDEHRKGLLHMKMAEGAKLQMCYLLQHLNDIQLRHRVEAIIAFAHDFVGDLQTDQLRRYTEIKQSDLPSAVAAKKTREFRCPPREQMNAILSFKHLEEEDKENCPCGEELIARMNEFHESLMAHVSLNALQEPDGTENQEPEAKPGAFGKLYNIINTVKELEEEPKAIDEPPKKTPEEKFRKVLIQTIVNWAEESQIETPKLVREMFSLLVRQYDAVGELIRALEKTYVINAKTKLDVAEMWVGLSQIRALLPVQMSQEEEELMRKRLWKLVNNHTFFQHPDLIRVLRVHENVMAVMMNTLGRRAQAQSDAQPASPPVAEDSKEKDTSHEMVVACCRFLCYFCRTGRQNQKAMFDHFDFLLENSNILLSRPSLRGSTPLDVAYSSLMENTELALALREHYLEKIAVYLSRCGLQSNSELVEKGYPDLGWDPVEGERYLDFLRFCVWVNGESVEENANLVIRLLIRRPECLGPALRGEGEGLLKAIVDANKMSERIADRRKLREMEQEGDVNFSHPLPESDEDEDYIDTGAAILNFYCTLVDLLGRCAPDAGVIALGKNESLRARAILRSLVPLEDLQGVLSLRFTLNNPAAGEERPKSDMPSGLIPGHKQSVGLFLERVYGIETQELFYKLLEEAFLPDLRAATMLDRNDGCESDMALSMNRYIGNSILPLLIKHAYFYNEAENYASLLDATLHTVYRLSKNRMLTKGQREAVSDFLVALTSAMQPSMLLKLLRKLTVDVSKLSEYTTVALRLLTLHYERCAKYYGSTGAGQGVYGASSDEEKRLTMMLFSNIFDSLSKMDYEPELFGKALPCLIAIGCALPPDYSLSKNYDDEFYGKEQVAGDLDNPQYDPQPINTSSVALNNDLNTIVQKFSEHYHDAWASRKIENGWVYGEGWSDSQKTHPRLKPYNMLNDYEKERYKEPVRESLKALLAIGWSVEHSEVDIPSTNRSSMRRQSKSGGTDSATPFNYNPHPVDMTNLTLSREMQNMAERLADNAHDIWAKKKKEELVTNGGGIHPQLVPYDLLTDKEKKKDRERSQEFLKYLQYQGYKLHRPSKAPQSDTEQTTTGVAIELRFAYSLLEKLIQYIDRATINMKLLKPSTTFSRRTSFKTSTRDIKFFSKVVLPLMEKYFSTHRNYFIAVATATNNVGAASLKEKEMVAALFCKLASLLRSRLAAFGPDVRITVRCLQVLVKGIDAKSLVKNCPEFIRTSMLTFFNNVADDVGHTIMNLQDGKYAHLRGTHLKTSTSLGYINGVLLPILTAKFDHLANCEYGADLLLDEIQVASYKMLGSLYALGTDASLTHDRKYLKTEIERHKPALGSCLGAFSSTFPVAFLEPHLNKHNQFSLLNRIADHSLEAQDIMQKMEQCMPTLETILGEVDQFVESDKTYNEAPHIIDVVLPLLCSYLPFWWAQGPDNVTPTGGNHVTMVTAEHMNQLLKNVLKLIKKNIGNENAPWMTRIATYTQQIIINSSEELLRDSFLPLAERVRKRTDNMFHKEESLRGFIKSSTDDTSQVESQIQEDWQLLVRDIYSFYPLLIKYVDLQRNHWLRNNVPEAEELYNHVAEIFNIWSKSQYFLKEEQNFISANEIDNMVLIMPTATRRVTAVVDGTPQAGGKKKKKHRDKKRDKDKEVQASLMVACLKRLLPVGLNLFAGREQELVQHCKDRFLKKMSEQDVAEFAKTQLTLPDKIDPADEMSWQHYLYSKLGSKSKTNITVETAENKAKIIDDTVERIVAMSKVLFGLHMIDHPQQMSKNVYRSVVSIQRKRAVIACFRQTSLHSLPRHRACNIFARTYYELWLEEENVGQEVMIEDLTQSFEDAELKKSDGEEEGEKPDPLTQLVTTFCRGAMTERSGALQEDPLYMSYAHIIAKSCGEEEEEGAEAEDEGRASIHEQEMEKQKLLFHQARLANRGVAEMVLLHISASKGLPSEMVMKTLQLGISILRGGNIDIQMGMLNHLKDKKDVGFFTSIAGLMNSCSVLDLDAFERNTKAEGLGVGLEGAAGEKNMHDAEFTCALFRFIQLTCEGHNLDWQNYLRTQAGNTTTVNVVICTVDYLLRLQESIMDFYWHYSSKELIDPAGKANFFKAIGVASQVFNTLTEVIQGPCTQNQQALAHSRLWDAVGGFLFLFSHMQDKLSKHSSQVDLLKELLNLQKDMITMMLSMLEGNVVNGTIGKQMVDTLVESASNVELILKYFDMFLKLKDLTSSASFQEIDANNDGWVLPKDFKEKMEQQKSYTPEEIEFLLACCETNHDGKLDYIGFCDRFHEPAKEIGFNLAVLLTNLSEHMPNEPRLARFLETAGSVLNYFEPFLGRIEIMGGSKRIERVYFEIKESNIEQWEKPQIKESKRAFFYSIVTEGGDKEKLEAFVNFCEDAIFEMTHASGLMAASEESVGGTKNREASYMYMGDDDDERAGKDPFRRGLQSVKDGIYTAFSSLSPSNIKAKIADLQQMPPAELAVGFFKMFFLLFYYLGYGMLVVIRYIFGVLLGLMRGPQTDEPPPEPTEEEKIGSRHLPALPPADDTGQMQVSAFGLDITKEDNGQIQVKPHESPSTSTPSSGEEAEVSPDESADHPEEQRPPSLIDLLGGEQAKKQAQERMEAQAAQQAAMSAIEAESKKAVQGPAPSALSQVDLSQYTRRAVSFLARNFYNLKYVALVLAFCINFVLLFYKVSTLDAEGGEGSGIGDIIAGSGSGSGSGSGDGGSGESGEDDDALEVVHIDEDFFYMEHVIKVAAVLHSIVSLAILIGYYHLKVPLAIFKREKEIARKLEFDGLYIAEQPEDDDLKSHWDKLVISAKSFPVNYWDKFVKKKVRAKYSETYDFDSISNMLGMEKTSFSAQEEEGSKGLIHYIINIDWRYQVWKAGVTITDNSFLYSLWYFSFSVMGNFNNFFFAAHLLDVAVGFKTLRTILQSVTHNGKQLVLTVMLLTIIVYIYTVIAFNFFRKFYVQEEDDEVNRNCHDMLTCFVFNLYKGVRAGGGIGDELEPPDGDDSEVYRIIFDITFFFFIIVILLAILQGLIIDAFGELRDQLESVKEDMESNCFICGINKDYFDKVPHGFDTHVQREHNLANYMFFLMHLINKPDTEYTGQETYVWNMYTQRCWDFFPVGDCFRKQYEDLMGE",
  "assay": "time-lapse R-CEPIA1er [Ca2+]ER measurement in HEK cells stably expressing sfRyR (positive control)",
  "type": "cell-based",
  "data": [
    {"smiles": "CNC(=O)c1cc(Cl)cc(C)c1NC(=O)c1cc(Br)nn1-c1ncccc1Cl", "note": "[chlo, chlorantraniliprole]", "values": [
      {"measurement": "time-lapse R-CEPIA1er [Ca2+]ER measurement in HEK cells stably expressing sfRyR", "value": "their effect in intracellular Ca2 release is similar to that of the positive control chlo"}
    ]}
  ]
}
